Experimental findings from patent US9512152B2, “Phospholipid compound containing unsaturated fatty acid derivative having cyclopropane ring” (NISHIZAKI BIOINFORMATION RESEARCH INSTITUTE, priority 2013, dated 2016) are described below.

In experiment [1] the target is T1, PKCι (Homo sapiens, UniProt P41743).
T1 sequence (P41743 1-596): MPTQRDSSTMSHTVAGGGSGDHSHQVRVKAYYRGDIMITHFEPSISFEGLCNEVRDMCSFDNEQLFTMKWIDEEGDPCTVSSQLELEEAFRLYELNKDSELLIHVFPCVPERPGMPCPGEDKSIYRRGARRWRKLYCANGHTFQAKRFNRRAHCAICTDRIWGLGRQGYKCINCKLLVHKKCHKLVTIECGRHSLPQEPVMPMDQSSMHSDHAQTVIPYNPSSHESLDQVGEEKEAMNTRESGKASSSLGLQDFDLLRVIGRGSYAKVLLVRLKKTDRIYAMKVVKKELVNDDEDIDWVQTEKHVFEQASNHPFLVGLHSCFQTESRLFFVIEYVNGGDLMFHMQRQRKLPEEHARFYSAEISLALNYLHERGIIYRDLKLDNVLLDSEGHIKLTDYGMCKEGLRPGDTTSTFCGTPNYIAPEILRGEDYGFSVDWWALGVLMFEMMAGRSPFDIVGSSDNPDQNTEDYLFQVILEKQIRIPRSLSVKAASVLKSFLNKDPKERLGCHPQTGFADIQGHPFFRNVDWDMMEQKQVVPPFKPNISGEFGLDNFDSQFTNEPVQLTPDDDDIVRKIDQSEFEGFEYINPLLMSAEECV
The experiment in a line: Cell-free PKC assay. It is filed as biochemical. The following applies: 100 μM, FIG. 6. On the procedure:
(§1) PKC activity in a cell-free system was quantified by the method described in a previous report (Kanno T et al. J Lipid Res 2006; 47: 1146-1156). In short, synthesized PKC substrate peptide (10 μM) was reacted with various PKC isozymes in a medium containing 20 mM Tris-HCl (pH 7.5), 5 mM magnesium acetate, 10 μM ATP, and DCP-LA-phospholipid in the absence of phosphatidylserine and diacylglycerol at 30° C. for 5 min. A Ca^2+-free medium was used for novel PKC such as PKC-δ, -ε and the like, and a 100 μM CaCl2-containing medium was used for other PKC isozymes. They were loaded on reversed-phase HPLC (LC-10ATvp, Shimadzu Co., Kyoto, Japan), and the peaks of substrate peptide and new resultant products were measured at an absorbance of 214 nm. The areas of non-phosphorylated PKC substrate peptide and phosphorylated PKC substrate peptide were measured (total area corresponds to the concentration of PKC substrate peptide used in this Example), and the amount of the phosphorylated substrate peptide was calculated. The amount of the phosphorylated substrate peptide (pmol/1 min) per 1 min was used as an index of the PKC activity.

The target in experiment [2] is T2, PKCζ (Homo sapiens, UniProt Q05513).
T2 sequence (Q05513 1-592): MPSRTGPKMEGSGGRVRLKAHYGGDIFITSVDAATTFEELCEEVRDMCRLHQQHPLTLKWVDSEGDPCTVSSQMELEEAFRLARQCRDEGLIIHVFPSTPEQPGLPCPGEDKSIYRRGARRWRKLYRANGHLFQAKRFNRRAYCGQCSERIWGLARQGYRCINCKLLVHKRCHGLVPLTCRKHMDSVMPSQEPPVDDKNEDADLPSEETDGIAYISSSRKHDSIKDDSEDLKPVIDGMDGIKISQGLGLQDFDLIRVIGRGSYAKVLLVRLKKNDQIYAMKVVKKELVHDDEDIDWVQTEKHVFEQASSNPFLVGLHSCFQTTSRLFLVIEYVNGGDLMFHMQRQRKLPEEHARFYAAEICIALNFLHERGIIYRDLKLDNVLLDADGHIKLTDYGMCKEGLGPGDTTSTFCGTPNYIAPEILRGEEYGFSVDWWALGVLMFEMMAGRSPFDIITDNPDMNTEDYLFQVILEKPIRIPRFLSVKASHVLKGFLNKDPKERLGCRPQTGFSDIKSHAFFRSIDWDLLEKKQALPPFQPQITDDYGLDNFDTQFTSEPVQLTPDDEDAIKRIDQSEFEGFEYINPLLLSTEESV
The experiment in a line: Cell-free PKC assay. It is filed as biochemical. The settings on record: 100 μM, FIG. 6. The protocol:
as §1

Experiment [3] has as its system PKC isozymes. Kind of experiment: Cell-free PKC assay. It is filed as biochemical. The following applies: 100 μM, FIG. 5. On the procedure:
as §1

Experiment [4] concerns C57BL/KsJ-lepr db/lepr db mouse. Kind of experiment: Glucose tolerance test in type 2 diabetes model mouse. It is filed as in vivo. The following applies: oral, 0.01-3 mg/kg, 30 min before glucose 2 g/kg, FIG. 10. On the procedure:
C57BL/KsJ-lepr^db/lepr^db mouse (female, 8-week-old) (CLEA Japan; Tokyo, Japan) was used. The glucose tolerance test was performed using the mouse starved for 12 hr. Glucose (2 g/ml/kg body weight) was administered by gavage, and the time point thereof was taken as 0 h. diDCP-LA-PE (0.01, 0.1, 1, 3 mg/kg), insulin (0.75 U/kg) or brine was orally administered 30 min before administration of glucose. The blood (10 μl) was collected from the tail vein at the time points of 0, 30, 60, and 90 min, and each plasma sample which was labeled with p-aminobenzylethylester and prepared from the obtained blood was loaded on high performance liquid chromatography (HPLC) system (LC-10ATvp; Shimadzu Co., Kyoto, Japan). The glucose concentration was calculated from a peak area/concentration analytical curve prepared using the standard glucose solution.

On to `CCCCCC1CC1CC1CC1CCCCCCCC(=O)OC[C@H](COP(=O)(O)OCCN)OC(=O)CCCCCCCC1CC1CC1CC1CCCCC` (stereo partly shown) [diDCP-LA-PE, 1,2-o-bis-[8-{2-(2-pentyl-cyclopropylmethyl)-cyclopropyl}-octanoyl]-sn-glycero-3-phosphatidylethanolamine], for which, in experiment [1], the “PKCι activation, specificity” value was “specific activating agent of PKCι and PKCζ”. The “PKCζ activation, specificity” value in experiment [2] was “specific activating agent of PKCι and PKCζ”. Besides, in experiment [3], the “PKC activation, all PKC isozymes” value is reported as “activates all PKC isozymes”. For the same compound, in experiment [4], the “Decrease of blood glucose level” value is listed as “decrease the blood glucose level in a dose-dependent manner”.
